For assay [1], the target named is T1, AKR1C3 (Homo sapiens, UniProt P42330).
T1 construct: AKR1C3 human ORF-Clone transiently over-expressed in HEK293 cells
T1 sequence (P42330 1-323): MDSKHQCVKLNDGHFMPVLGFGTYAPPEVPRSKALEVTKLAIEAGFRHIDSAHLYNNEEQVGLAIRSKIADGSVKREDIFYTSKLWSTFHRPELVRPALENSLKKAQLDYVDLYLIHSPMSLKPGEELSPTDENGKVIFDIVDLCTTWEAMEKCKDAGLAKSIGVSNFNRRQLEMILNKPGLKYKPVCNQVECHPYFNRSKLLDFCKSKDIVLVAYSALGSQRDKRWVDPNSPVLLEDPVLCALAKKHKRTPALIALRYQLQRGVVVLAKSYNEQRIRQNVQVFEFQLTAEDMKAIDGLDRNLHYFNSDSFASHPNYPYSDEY
Nature of the assay: inhibition of idarubicinol formation (UPLC-MS/MS) in HEK293 cells over-expressing AKR1C3, compared with empty-vector control. In kind it is cell-based.

The target in assay [2] is T1, AKR1C3. The experiment in a line: idarubicinol formation (UPLC-MS/MS) in AKR1C3-transfected HEK293 cells versus empty-vector cells, […] idarubicin. In kind it is cell-based.

As usually defined, the IC50 is the concentration that gives 50% inhibition. In the case of `O=C1C[C@@]2(C(=O)N1)C(=O)N(Cc1ccc(Br)cc1F)C(=O)c1cccn12` [ranirestat], on AKR1C3 [1], the IC50 turned out to be 500 ± 100 nM.
For the compound `CC(=O)[C@]1(O)Cc2c(O)c3c(c(O)c2[C@@H](O[C@H]2C[C@H](N)[C@H](O)[C@H](C)O2)C1)C(=O)c1ccccc1C3=O` [idarubicin], the “idarubicinol formation (UPLC-MS/MS) in AKR1C3-transfected HEK293 cells versus em” value on AKR1C3 [2] is recorded as “the over-expression lead to a significantly higher idarubicinol formation in HEK293 cells”.

Source of the values: PMC10861747, “In vitro evaluation of the reductive carbonyl idarubicin metabolism to evaluate inhibitors of the formation of cardiotoxic idarubicinol via carbonyl and aldo–keto reductases” (Archives of Toxicology, 2024).
